Results reported in patent US20180317487A1, “METHOD OF CONTROLLING GROWTH OF ALS-TOLERANT PLANTS” (ROTAM AGROCHEM INTERNATIONAL COMPANY LIMITED, priority 2015, published 2018).

Columns and labels:
[1] = system: wild (non-tolerant) plants; experiment: Review of the spray test data, wild plants together; type: in vivo; conditions: review of the data of Tables 5 and 6
Source text: (§1) Seeds of normal wild variety and ALS-resistant variant of each of Stellaria media, Papaver rhoeas, Matricaria chamomilla and Matricaria inodora were sown in trays of peat-based compost placed in a glasshouse to allow germination. At the cotyledon stage, four evenly sized seedlings were transplanted into each of 9 cm diameter plastic pots containing loam soil mixed with 25% by volume horticultural silver sand and further blended with coarse grit in the ratio 3:1. The resulting potting medium was supplemented with Osmacote slow-release fertilizer (16:8:9+Mg) to provide 1.4 g per 0.35 L pot.
(§2) The formulations of each of Examples C1 to C11 and 1 to 16 were applied to the seedlings by spraying. Three replicate pots were used per treatment. Prior to spraying, the plants were watered overhead. To ensure the foliage was dry, water was not applied on the day of spraying, with the last overhead watering being the day before spraying. The herbicide formulations were made up with mains tap water. The laboratory track sprayer was set up with a Lurmark O1E80 Even spray nozzle to deliver 200±20 L/ha using gear 4 and a pressure of […] (30 psi). The application rates of the active ingredients are set out in Table 5 below.
(§3) Following spraying, the plants were returned to the glasshouse and the sprayed pots were arranged in three randomized blocks. The temperature of the glasshouse ranged from 12.2° C. to 16.1° C. by day and 10.9° C. to 13.3° C. at night. The relative humidity ranged from 75% to 101 %.
(§4) Throughout the experiment, the plants were watered to maintain the soil close to the field capacity. Following herbicide treatment, the plants were watered by sub-irrigation using individual plastic dishes for each pot to avoid any risk of cross contamination.
(§5) The visual percentage of control based on a 0-100 linear scale was assessed 21 days after treatment (DAT). The linear scale ranged from 0 (no effect) to 100 (dead plants).
(§6) In Table 6, ‘Obs’ indicates an observed result and ‘Exp’ indicates the result expected from applying the Colby equation, discussed above.

ALS-tolerant plants = experiment: Review of the spray test data, ALS-tolerant plants together; type: in vivo; conditions: review of the data of Tables 5 and 6
Source text: as §1, §2, §3, §4, §5, §6

For `COc1nc(C)nc(NC(=O)NS(=O)(=O)c2ccsc2C(=O)O)n1` [Thifensulfuron], the “damage to wild (non-tolerant) plants (in words)” value [1] was “significantly damaging” and the “damage to / effect on ALS-tolerant plants (in words)” value (shortened to “damage to / effect”) (ALS-tolerant plants) was “little or no effect”.

In the case of `COc1nc(C)nc(=NC(=O)NS(=O)(=O)c2ccccc2C(=O)O)[nH]1` [Metsulfuron], the “damage to wild (non-tolerant) plants (in words)” value [1] is reported as “significantly damaging” and the “damage to / effect” value (ALS-tolerant plants) is reported as “little or no effect”.

For `COc1cc(OC)nc(NC(=O)NS(=O)(=O)c2c(C(=O)O)c(Cl)nn2C)n1` [Halosulfuron], the “damage to wild (non-tolerant) plants (in words)” value [1] was “significantly damaging” and the “damage to / effect” value (ALS-tolerant plants) was “little or no effect”.

`COc1nc(C)nc(N(C)C(=O)NS(=O)(=O)c2ccccc2C(=O)O)n1` [Tribenuron] was tested, and the “damage to wild (non-tolerant) plants (in words)” value [1] was “significantly damaging” and the “damage to / effect” value (ALS-tolerant plants) was “little or no effect”.

In the case of `CSc1nnc(C(C)(C)C)c(=O)n1N` [metribuzin, 4-amino-6-tert-butyl-4,5-dihydro-3-methylthio-1,2,4-triazin-5-one], the “damage to wild (non-tolerant) plants (in words)” value [1] is reported as “caused damage” and the “damage to / effect” value (ALS-tolerant plants) is reported as “caused damage”.

In the case of `CCS(=O)(=O)c1nc2ccccn2c1S(=O)(=O)NC(=O)Nc1nc(OC)cc(OC)n1` [Sulfosulfuron], the “damage to wild (non-tolerant) plants (in words)” value [1] is reported as “significantly damaging” and the “damage to / effect” value (ALS-tolerant plants) is reported as “little or no effect”.

`COc1cc(OC)nc(NC(=O)NS(=O)(=O)c2cc(CNS(C)(=O)=O)ccc2C(=O)O)n1` [Mesosulfuron] was tested, and the “damage to wild (non-tolerant) plants (in words)” value [1] was “significantly damaging” and the “damage to / effect” value (ALS-tolerant plants) was “little or no effect”.

`COc1cc(OC)nc(NC(=O)NS(=O)(=O)c2ncccc2C(=O)N(C)C)n1` [Nicosulfuron] was tested, and the “damage to wild (non-tolerant) plants (in words)” value [1] was “significantly damaging” and the “damage to / effect” value (ALS-tolerant plants) was “little or no effect”.

`CCS(=O)(=O)c1cccnc1S(=O)(=O)NC(=O)Nc1nc(OC)cc(OC)n1` [Rimsulfuron] was tested, and the “damage to wild (non-tolerant) plants (in words)” value [1] was “significantly damaging” and the “damage to / effect” value (ALS-tolerant plants) was “little or no effect”.

In the case of `COc1cc(OC)nc(NC(=O)NS(=O)(=O)N(C)S(C)(=O)=O)n1` [Amidosulfuron], the “damage to wild (non-tolerant) plants (in words)” value [1] is reported as “significantly damaging” and the “damage to / effect” value (ALS-tolerant plants) is reported as “little or no effect”.

`COc1nc(C)nc(NC(=O)NS(=O)(=O)c2cc(I)ccc2C(=O)O)n1` [Iodosulfuron] was tested, and the “damage to wild (non-tolerant) plants (in words)” value [1] was “significantly damaging” and the “damage to / effect” value (ALS-tolerant plants) was “little or no effect”.
